Source: patent US10899738B2 (THE REGENTS OF THE UNIVERSITY OF MICHIGAN, priority 2016, dated 2021)
pIC50: −log10 of the molar value.

Target: menin protein (Homo sapiens (Human), UniProt O00255)
Test: biochemical
Assay type: binding
Conditions: FP competitive binding; menin protein 4 nM, FAM-MM2 probe 2 nM
Outline: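 Test compounds displaced FAM-MM2 (2 nM) from 4 nM menin after 30 min equilibration at room temperature in PBS buffer containing bovine γ-globulin, 4% DMSO and Triton X-100. Binding was followed by fluorescence polarization. Competition curves were fitted by nonlinear regression to give IC50 and Ki.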

menin protein, sequence (O00255 whole entry): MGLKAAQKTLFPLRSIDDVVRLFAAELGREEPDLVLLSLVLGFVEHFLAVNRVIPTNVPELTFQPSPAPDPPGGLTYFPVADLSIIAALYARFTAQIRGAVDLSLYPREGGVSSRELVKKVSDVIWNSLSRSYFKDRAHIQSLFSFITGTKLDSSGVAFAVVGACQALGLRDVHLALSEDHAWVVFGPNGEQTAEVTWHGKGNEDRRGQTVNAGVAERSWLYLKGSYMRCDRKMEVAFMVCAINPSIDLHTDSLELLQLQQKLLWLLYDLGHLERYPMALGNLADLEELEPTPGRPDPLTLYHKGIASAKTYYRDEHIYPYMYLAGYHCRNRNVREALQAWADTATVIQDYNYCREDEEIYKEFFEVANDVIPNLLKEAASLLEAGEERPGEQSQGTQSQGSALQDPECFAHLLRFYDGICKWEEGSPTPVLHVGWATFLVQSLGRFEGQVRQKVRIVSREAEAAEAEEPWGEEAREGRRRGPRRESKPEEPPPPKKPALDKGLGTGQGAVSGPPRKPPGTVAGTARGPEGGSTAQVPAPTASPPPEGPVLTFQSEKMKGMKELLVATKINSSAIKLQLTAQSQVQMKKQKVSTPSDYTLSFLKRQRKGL

Menin Binding Affinity IC50 (μM) | Structure (SMILES)
No inhibition | COC1CCC(C2(C3CCN(CCCOc4ccc(C#N)cc4)CC3)C(=O)NCc3ccccc32)C1 (stereo not shown) [compound 26, 4-(3-(4-(4-(3-methoxycyclopentyl)-3-oxo-1,2,3,4-tetrahydroisoquinolin-4-yl)piperidin-1-yl)propoxy)benzonitrile]
No inhibition | c1ccc2c(c1)CCNC2(c1ccncc1)C1CCCC1 (stereo not shown) [compound 78, 1-cyclopentyl-1-(pyridin-4-yl)-1,2,3,4-tetrahydroisoquinoline]

Same assay, conditions: FP competitive binding; menin protein 4 nM, FAM-MM2 probe 2 nM; read-out: Menin Binding Affinity IC50

Structure (SMILES) | pIC50
N#Cc1ccc(NCCCN2CCC(C3(C4CCCC4)NCCc4ccccc43)CC2)cc1 (stereo not shown) [compound 58, 4-((3-(4-(1-cyclopentyl-1,2,3,4-tetrahydroisoquinolin-1-yl)piperidin-1-yl)propyl)amino)benzonitrile] | 6.62
CCCC(C)C1(C2CCN(CCCOc3ccc(C#N)cc3)CC2)NCCc2ccccc21 (stereo not shown) [compound 245, 4-(3-(4-(1-(pentan-2-yl)-1,2,3,4-tetrahydroisoquinolin-1-yl)piperidin-1-yl)propoxy)benzonitrile] | 5.48
N#CC(c1ccccc1)(C1CCN(CC2CN(c3ccc(S(=O)(=O)c4ccncc4)cc3)C2)CC1)[C@H]1CCC[C@@H]1OC(=O)N1CCC1 (mixture of isomers) [compound 221, rac-(1S,2R)-2-(cyano(phenyl)(1-((1-(4-(pyridin-4-ylsulfonyl)phenyl)azetidin-3-yl)methyl)piperidin-4-yl)methyl)cyclopentyl azetidine-1-carboxylate] | 7.12
CC(=O)O[C@@H]1CCC[C@H]1C(C#N)(c1ccccc1F)C1CCN(CCCOc2ccc(C#N)cc2)CC1 (mixture of isomers) [compound 309, rac-(1R,2S)-2-(cyano(1-(3-(4-cyanophenoxy)propyl)piperidin-4-yl)(2-fluorophenyl)methyl) cyclopentyl acetate] | 4.94
N#Cc1ccc(N2CC(CN3CCC(C4(C5CCCC5)NCCc5ccccc54)CC3)C2)c(Cl)c1 (stereo not shown) [compound 139, 3-chloro-4-(3-((4-(1-cyclopentyl-1,2,3,4-tetrahydroisoquinolin-1-yl)piperidin-1-yl)methyl)azetidin-1-yl)benzonitrile] | 7.14
N#Cc1ccc(OCCCN2CCC(C3(Cc4ccccc4)NCCc4ccccc43)CC2)cc1 (stereo not shown) [compound 243, 4-(3-(4-(1-benzyl-1,2,3,4-tetrahydroisoquinolin-1-yl)piperidin-1-yl)propoxy)benzonitrile] | 5.38
CNC(=O)O[C@@H]1CCC[C@H]1C(Cn1ccnc1C)(c1cccc(F)c1)C1CCN(CC2CN(c3ccc(Cl)cc3)C2)CC1 (mixture of isomers) [compound 414, rac-(1R,2S)-2-(1-(1-((1-(4-chlorophenyl)azetidin-3-yl)methyl)piperidin-4-yl)-1-(3-fluorophenyl)-2-(2-methyl-1H-imidazol-1-yl)ethyl)cyclopentyl methylcarbamate] | 6.27
CC(C)C(=O)O[C@H]1CCC[C@@H]1C(C#N)(c1ccccc1)C1CCN(CC2CN(c3ccc(S(=O)(=O)c4ccncc4)cc3)C2)CC1 (mixture of isomers) [compound 193, rac-(1S,2R)-2-(cyano(phenyl)(1-((1-(4-(pyridin-4-ylsulfonyl)phenyl)azetidin-3-yl)methyl)piperidin-4-yl)methyl)cyclopentyl isobutyrate] | 6.63
CO[C@H]1CCC[C@@H]1C(C#N)(c1ccccc1)C1CCN(CCCOc2ccc(C#N)cc2)CC1 (stereo partly drawn) [compound 174, 4-(3-(4-(cyano((1R,2S)-2-methoxycyclopentyl)(phenyl)methyl)piperidin-1-yl)propoxy)benzonitrile] | 4.61
CC(COc1ccc(C#N)cc1)CN1CCC(C(C#N)(c2ccccc2)C2CCCC2)CC1 (stereo not shown) [compound 127, 4-(3-(4-(cyano(cyclopentyl)(phenyl)methyl)piperidin-1-yl)-2-methylpropoxy)benzonitrile] | 3.53
CC(=O)N[C@@H]1CCC[C@H]1C1(C2CCN(CC3CN(c4ccc(S(=O)(=O)c5cnn(C)c5)cc4)C3)CC2)CNCc2ccccc21 (mixture of isomers) [compound 287, rac-N-((1R,2S)-2-(4-(1-((1-(4-((1-methyl-1H-pyrazol-4-yl)sulfonyl)phenyl)azetidin-3-yl)methyl)piperidin-4-yl)-1,2,3,4-tetrahydroisoquinolin-4-yl)cyclopentyl)acetamide] | 6.61
CC(=O)O[C@H]1CCC[C@@H]1C(C#N)(c1ccccc1F)C1CCN(CC2CN(c3ccc(S(=O)(=O)C4CC4)cc3)C2)CC1 (mixture of isomers) [compound 310, rac-(1S,2R)-2-(cyano(1-((1-(4-(cyclopropylsulfonyl)phenyl)azetidin-3-yl)methyl)piperidin-4-yl)(2-fluorophenyl)methyl) cyclopentyl acetate] | 7.35
CNC(=O)O[C@@H]1CCC[C@H]1C(Cn1ccnc1)(c1ccccc1)C1CCN(CC2CN(c3ccc(S(=O)(=O)c4ccccc4)cc3)C2)CC1 (mixture of isomers) [compound 237, rac-(1R,2S)-2-(2-(1H-imidazol-1-yl)-1-phenyl-1-(1-((1-(4-(phenylsulfonyl)phenyl)azetidin-3-yl)methyl)piperidin-4-yl)ethyl)cyclopentyl methylcarbamate] | 7.38
COC(=O)N[C@H]1CCC[C@@H]1C(C#N)(c1ccccc1)C1CCN(CC2CN(c3ccccc3)C2)CC1 (mixture of isomers) [compound 402, methyl rac-((1S,2R)-2-(cyano(phenyl)(1-((1-phenylazetidin-3-yl)methyl)piperidin-4-yl)methyl)cyclopentyl) carbamate] | 5.62
CC1CN(CCCOc2ccc(C#N)cc2)CCC1C(C#N)(c1ccccc1)C1CCCC1 (stereo not shown) [compound 120, 4-(3-(4-(cyano(cyclopentyl)(phenyl)methyl)-3-methylpiperidin-1-yl)propoxy)benzonitrile] | 5.24
N#Cc1ccc(OCCCCN2CC(C3(C4CCCC4)NCCc4ccccc43)C2)cc1 (stereo not shown) [compound 62, 4-(4-(3-(1-cyclopentyl-1,2,3,4-tetrahydroisoquinolin-1-yl)azetidin-1-yl)butoxy)benzonitrile] | 4.44
CS(=O)(=O)c1ccc(N2CC(CN3CCC(C4(C5CCCC5)NCCc5ccccc54)CC3)C2)cc1 (stereo not shown) [compound 132, 1-cyclopentyl-1-(1-((1-(4-(methylsulfonyl)phenyl)azetidin-3-yl)methyl)piperidin-4-yl)-1,2,3,4-tetrahydroisoquinoline] | 7.11
CNC(=O)O[C@H]1CCC[C@@H]1C(C#N)(c1ccccc1)C1CCN(CC2CN(c3ccc(C(=O)OC)cc3)C2)CC1 (mixture of isomers) [compound 373, methyl rac-4-(3-((4-(cyano((1R,2S)-2-((methylcarbamoyl)oxy)cyclopentyl)(phenyl)methyl)piperidin-1-yl)methyl)azetidin-1-yl)benzoate] | 6.95
COC[C@@H]1CCC[C@H]1C(C#N)(c1ccccc1)C1CCN(CC2CN(c3ccc(S(=O)(=O)C4CC4)cc3)C2)CC1 (mixture of isomers) [compound 266, rac-2-(1-((1-(4-(cyclopropylsulfonyl)phenyl)azetidin-3-yl)methyl)piperidin-4-yl)-2-((1R,2R)-2-(methoxymethyl)cyclopentyl)-2-phenylacetonitrile] | 5.35
CN1CCc2ccccc2C1(C1CCCC1)C1CCN(CCCOc2ccc(C#N)cc2)CC1 (stereo not shown) [compound 28, 4-(3-(4-(1-cyclopentyl-2-methyl-1,2,3,4-tetrahydroisoquinolin-1-yl)piperidin-1-yl)propoxy)benzonitrile] | 6.42
N#Cc1ccc(OCCCN2CCC(C3(C4CCCCC4)NCCc4ccccc43)CC2)cc1 (stereo not shown) [compound 298, 4-(3-(4-(1-cyclohexyl-1,2,3,4-tetrahydroisoquinolin-1-yl)piperidin-1-yl)propoxy)benzonitrile] | 6.52
O=C(c1ccn(-c2ccc(S(=O)(=O)C3CC3)cc2)c1)N1CCC(C2(C3CCCC3)NCCc3ccccc32)CC1 (stereo not shown) [compound 122, (4-(1-cyclopentyl-1,2,3,4-tetrahydroisoquinolin-1-yl)piperidin-1-yl)(1-(4-(cyclopropylsulfonyl)phenyl)-1H-pyrrol-3-yl)methanone] | 4.24
c1ccc2c(c1)CCNC2(C1CCCC1)C1CCNCC1 (stereo not shown) [compound 72, 1-cyclopentyl-1-(piperidin-4-yl)-1,2,3,4-tetrahydroisoquinoline] | 3.21
CC(C)CCC1(C2CCN(CCCOc3ccc(C#N)cc3)CC2)NCCc2ccccc21 (stereo not shown) [compound 250, 4-(3-(4-(1-isopentyl-1,2,3,4-tetrahydroisoquinolin-1-yl)piperidin-1-yl)propoxy)benzonitrile] | 5.33
CO[C@H]1CCC[C@@H]1C1(C2CCN(CCCOc3ccc(C#N)cc3)CC2)CN(C)Cc2ccccc21 (mixture of isomers) [compound 325, rac-4-(3-(4-(4-((1R,2S)-2-methoxycyclopentyl)-2-methyl-1,2,3,4-tetrahydroisoquinolin-4-yl)piperidin-1-yl)propoxy)benzonitrile] | 5.74
c1ccc(CN2CCC(C3(C4CCCC4)NCCc4ccccc43)CC2)cc1 (stereo not shown) [Cpd. No. 71, 1-(1-benzylpiperidin-4-yl)-1-cyclopentyl-1,2,3,4-tetrahydroisoquinoline] | 3.72
N#Cc1cc2cc(C(=O)N[C@H]3CC[C@H](C4(C5CCCC5)NCCc5ccccc54)CC3)ccc2[nH]1 (stereo partly shown) [compound 80, 2-cyano-N-((1r,4r)-4-(1-cyclopentyl-1,2,3,4-tetrahydroisoquinolin-1-yl)cyclohexyl)-1H-indole-5-carboxamide] | 4.94
N#Cc1ccc(N2CCC(N3CCC(C4(C5CCCC5)NCCc5ccccc54)CC3)CC2)cc1 (stereo not shown) [compound 55, 4-(4-(1-cyclopentyl-1,2,3,4-tetrahydroisoquinolin-1-yl)-[1,4′-bipiperidin]-1′-yl)benzonitrile] | 6.17
CC(=O)O[C@H]1CCC[C@@H]1C(C#N)(c1cccc(F)c1)C1CCN(CC2CN(c3ccc(S(=O)(=O)c4ccccc4)cc3)C2)CC1 (mixture of isomers) [compound 312, rac-(1S,2R)-2-(cyano(3-fluorophenyl)(1-((1-(4-(phenylsulfonyl)phenyl)azetidin-3-yl)methyl)piperidin-4-yl)methyl)cyclopentyl acetate] | 7.89
